Measurements published in patent US20150250713A1, “Pharmaceutical Composition” (CIPLA LIMITED, priority 2012, published 2015).

Test: Moisture uptake of HFA propellants
Type: physicochemical
Details: ratio versus HFA-227 (measured values)

- moisture uptake compared to HFA-227: six times higher
Structure (SMILES): FCC(F)(F)F [HFA-134 (a), 1,1,1,2-tetrafluoroethane]
